Tests used:
[1] = system: A549; experiment: A549 wound healing inhibition; conditions: Homo sapiens; A549 cells; read-out: Potency in cell-based assays A549 wound healing inhibition
[2] = system: DU145; experiment: DU145 scattering inhibition; conditions: Homo sapiens, DU-145; DU145 cells; read-out: Potency in cell-based assays DU145 scattering inhibition
[3] = target: T1, recombinant human c-Met/HGF receptor (Homo sapiens, UniProt P08581); experiment: In vitro receptor tyrosine kinase assay, c-Met (DELFIA); assay type: biochemical; conditions: ATP 10 uM, enzyme 25 nM; read-out: Potency in enzyme assays Cmet
T1 construct: His tag; made in house; host or cells: Hi-5 cells (Trichoplusia ni), recombinant baculovirus
T1 sequence (P08581 1078-1337): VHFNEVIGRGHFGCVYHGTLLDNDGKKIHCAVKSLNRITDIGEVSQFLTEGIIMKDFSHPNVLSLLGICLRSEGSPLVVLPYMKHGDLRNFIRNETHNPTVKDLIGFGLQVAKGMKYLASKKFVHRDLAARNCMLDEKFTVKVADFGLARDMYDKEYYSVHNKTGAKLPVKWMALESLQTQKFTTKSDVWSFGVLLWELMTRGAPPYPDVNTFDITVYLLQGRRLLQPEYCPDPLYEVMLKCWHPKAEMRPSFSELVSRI
Description: (§1) These tests measure the ability of compounds to inhibit the enzymatic activity of recombinant human c-Met/HGF receptor and VEGF receptor enzymatic activity.
A 1.3-kb cDNA corresponding to the intracellular domain of c-Met or c-Met IC (Genbank accession number NP000236-1 amino acid […]) is cloned into the BamHI/XhoI sites of the pBlueBacHis2A vector (Invitrogen) for the production of a histidine-tagged version of that enzyme. This construct is used to generate recombinant baculovirus using the Bac-N-Blue™ system according to the manufacturer's instructions (Invitrogen).
(§2) The c-Met IC protein is expressed in Hi-5 cells (Trichoplusia Ni) upon infection with recombinant baculovirus construct. Briefly, Hi-5 cells grown in suspension and maintained in serum-free medium (Sf900 II supplemented with gentamycin) at a cell density of about 2×10^6 cells/ml are infected with the above-mentioned viruses at a multiplicity of infection (MOI) of 0.2 during 72 hours at 27° C. with agitation at 120 rpm on a rotary shaker. Infected cells are harvested by centrifugation at 398 g for 15 min. Cell pellets are frozen at −80° C. until purification is performed.
All steps described in cell extraction and purification are performed at 4° C. Frozen Hi-5 cell pellets infected with the C-Met IC recombinant baculovirus are thawed and gently resuspended in Buffer A (20 mM Tris pH 8.0, 10% glycerol, 1 μg/ml pepstatin, 2 μg/ml Aprotinin and leupeptin, 50 μg/ml PMSF, 50 μg/ml TLCK and 10 μM E64, 0.5 mM DTT and 1 mM Levamisole) using 3 ml of buffer per gram of cells. The suspension is Dounce homogenized after which it is centrifuged at 22500 g, 30 min., 4° C. The supernatant (cell extract) is used as starting material for purification of c-Met IC.
The supernatant is loaded onto a QsepharoseFF column (Amersham Biosciences) equilibrated with Buffer B (20 mM Tris pH 8.0, 10% glycerol) supplemented with 0.05M NaCl. Following a ten column volume (CV) wash with equilibration buffer, bound proteins are eluted with a 5 CV salt linear gradient spanning from 0.05 to 1M NaCl in Buffer B. Typically, the conductivity of selected fractions rank between 6.5 and 37 mS/cm. This Qsepharose eluate has an estimated NaCl concentration of 0.33M and is supplemented with a 5M NaCl solution in order to increase NaCl concentration at 0.5M and also with a 5M Imidazole (pH 8.0) solution to achieve a final imidazole concentration of 15 mM. This material is loaded onto a HisTrap affinity column (GE Healthcare) equilibrated with Buffer C (50 mM NaPO4 pH 8.0, 0.5M NaCl, 10% glycerol) supplemented with 15 mM imidazole. After a 10 CV wash with equilibration buffer and an 8 CV wash with buffer C+40 mM imidazole, bound proteins are eluted with an 8 CV linear gradient (15 to 500 mM) of imidazole in buffer C. C-Met IC enriched fractions from this chromatography step are pooled based on SDS-PAGE analysis. This pool of enzyme undergoes buffer exchange using PD-10 column (GE Healthcare) against buffer D (25 mM HEPES pH 7.5, 0.1M NaCl, 10% glycerol and 2 mM β-mercaptoethanol). Final C-Met IC protein preparations concentrations are about 0.5 mg/ml with purity approximating 80%. Purified c-Met IC protein stocks are supplemented with BSA at 1 mg/ml, aliquoted and frozen at −80° C. prior to use in enzymatic assay.
Inhibition of c-Met/HGF receptor and VEGFR/KDR is measured in a DELFIA™ assay (Perkin Elmer). The substrate poly(Glu4,Tyr) is immobilized onto black high-binding polystyrene 96-well plates. The coated plates are washed and stored at 4° C. During the assay, enzymes are pre-incubated with inhibitor and Mg-ATP on ice in polypropylene 96-well plates for 4 minutes, and then transferred to the coated plates. The subsequent kinase reaction takes place at 30° C. for 10-30 minutes. ATP concentrations in the assay are 10 uM for C-Met (5× the Km) and 0.6 uM for VEGFR/KDR (2× the Km). Enzyme concentration is 25 nM (C-Met) or 5 nM (VEGFR/KDR). […]

[4] = target: T2, VEGF receptor KDR (Homo sapiens, UniProt P35968); experiment: In vitro receptor tyrosine kinase assay, VEGF receptor KDR (DELFIA); assay type: biochemical; conditions: ATP 0.6 uM, enzyme 5 nM; read-out: Potency in enzyme assays VEGF
T2 construct: made in house; host or cells: Sf9 cells (Spodoptera frugiperda), recombinant baculovirus
T2 sequence (P35968 806-1356): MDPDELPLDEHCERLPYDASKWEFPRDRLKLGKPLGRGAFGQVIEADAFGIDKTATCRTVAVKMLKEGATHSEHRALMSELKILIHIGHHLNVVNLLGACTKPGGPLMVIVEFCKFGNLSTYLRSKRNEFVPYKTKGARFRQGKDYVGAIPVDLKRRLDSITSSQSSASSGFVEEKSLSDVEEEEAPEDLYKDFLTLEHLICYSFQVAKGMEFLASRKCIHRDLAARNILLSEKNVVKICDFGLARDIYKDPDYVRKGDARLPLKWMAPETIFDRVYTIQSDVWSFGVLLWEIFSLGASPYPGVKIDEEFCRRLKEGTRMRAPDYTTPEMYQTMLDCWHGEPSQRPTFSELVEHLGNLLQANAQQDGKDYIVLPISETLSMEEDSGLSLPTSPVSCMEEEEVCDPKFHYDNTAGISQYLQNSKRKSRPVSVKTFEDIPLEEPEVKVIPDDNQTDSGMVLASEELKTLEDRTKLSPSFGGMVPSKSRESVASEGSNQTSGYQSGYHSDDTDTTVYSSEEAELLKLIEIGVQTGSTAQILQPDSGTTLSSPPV
Description: as §1
In the case of VEGF receptor KDR a 1.6-kb cDNA corresponding to the catalytic domain of VEGFR2 or KDR (Genbank accession number AF035121 amino acid 806 to 1356) is cloned into the Pst I site of the pDEST20 Gateway vector (Invitrogen) for the production of a GST-tagged version of that enzyme. This construct is used to generate recombinant baculovirus using the Bac-to-Bac system according to the manufacturer's instructions (Invitrogen).
as §2, with “GST-VEGFR2806-1356” for “c-Met IC”, “Sf9” for “Hi-5”, “(Spodoptera frugiperda)” for “(Trichoplusia Ni)”, “0.1” for “0.2”
All steps described in cell extraction and purification are performed at 4° C. Frozen Sf9 cell pellets infected with the GST-VEGFR2806-1356 recombinant baculovirus re thawed and gently resuspended in Buffer A (PBS pH 7.3 supplemented with 1 μg/ml pepstatin, 2 μg/ml Aprotinin and leupeptin, 50 μg/ml PMSF, 50 μg/ml TLCK and 10 μM E64 and 0.5 mM DTT) using 3 ml of buffer per gram of cells. Suspension is Dounce homogenized and 1% Triton X-100 is added to the homogenate after which it is centrifuged at 22500 g, 30 min., 4° C. The supernatant (cell extract) is used as starting material for purification of GST-VEGFR2806-1356.
The supernatant is loaded onto a GST-agarose column (Sigma) equilibrated with PBS pH 7.3. Following a four column volume (CV) wash with PBS pH 7.3+1% Triton X-100 and 4 CV wash with buffer B (50 mM Tris pH 8.0, 20% glycerol and 100 mM NaCl), bound proteins are step eluted with 5 CV of buffer B supplemented with 5 mM DTT and 15 mM glutathion. GST-VEGFR2806-1356 enriched fractions from this chromatography step are pooled based on U.V. trace i.e. fractions with high O.D^-280- Final GST-VEGFR2806-1356 protein preparations concentrations are about 0.7 mg/ml with purity approximating 70%. Purified GST-VEGFR2806-1356 protein stocks are aliquoted and frozen at −80° C. prior to use in enzymatic assay.
Inhibition of c-Met/HGF receptor and VEGFR/KDR is measured in a DELFIA™ assay (Perkin Elmer). The substrate poly(Glu4,Tyr) is immobilized onto black high-binding polystyrene 96-well plates. The coated plates are washed and stored at 4° C. During the assay, enzymes are pre-incubated with inhibitor and Mg-ATP on ice in polypropylene 96-well plates for 4 minutes, and then transferred to the coated plates. The subsequent kinase reaction takes place at 30° C. for 10-30 minutes. ATP concentrations in the assay are 10 uM for C-Met (5× the Km) and 0.6 uM for VEGFR/KDR (2× the Km). Enzyme concentration is 25 nM (C-Met) or 5 nM (VEGFR/KDR). After incubation, the kinase reactions are quenched with EDTA and the plates are washed. Phosphorylated product is detected by incubation with Europium-labeled anti-phosphotyrosine MoAb. After washing the plates, bound MoAb is detected by time-resolved fluorescence in a Gemini SpectraMax reader (Molecular Devices). Compounds are evaluated over a range of concentrations and IC50's (concentration of compounds giving 50% inhibition of enzymatic activity) are determined.

| IC50 [1] | IC50 [2] | IC50 [3] | IC50 [4] | SMILES |
| --- | --- | --- | --- | --- |
| 1 to 5 µM | 1 to 5 µM | 0.5 to 1 µM | ≥ 1 µM | CNC(=O)c1cc(Oc2ccc(NC(=O)N3CCN(c4ccc(F)cc4)C3=O)cc2F)ccn1 [Compound 87b, 4-(2-fluoro-4-(3-(4-fluorophenyl)-2-oxoimidazolidine-1-carboxamido)phenoxy)-N-methylpicolinamide] |
| > 10 µM | > 10 µM | ≥ 1 µM | ≥ 1 µM | O=C(NCCN1CCOCC1)c1cc(Oc2ccc(NC(=O)N3CCN(c4ccccc4)C3=O)cc2F)ccn1 [Compound 87c] |

Reference: patent US20080255155A1, “KINASE INHIBITORS AND USES THEREOF” (priority 2006, published 2008)
